Data on 1 molecule can be found in patent US20260345609A1, “METHODS FOR PROMOTING PERSISTENCE OF CELL THERAPY” (Legend Biotech Ireland Limited, priority 2022, published 2026).

In one experiment the test system is LUCAR-20SD cells. In words: Effect of MTX concentration on proliferation of LUCAR-20SD cells in vitro (AOPI counting). The experiment is classed as cell-based, human. The text has this: pLVX-Puro vector purchased from Clontech was subjected to the digestion reaction with ClaI and EcoRI restriction enzymes, and the CMV promoter was replaced with a human EFlapromoter (GenBank: J04617.1) to obtain the pLVX-hEF1α vector. The gene of DHFR L22F/F31S (SEQ ID NO: 1) was inserted between SIV NEF M116 and CD20 CAR of LCAR-UL186S, which was disclosed in PCT patent applications No. PCT/CN2020/112181 and PCT/CN2020/112182. The fusion gene sequence of SIV Nef_M116-P2A-DHFR L22F/F31S-IRES-CD8α SP-CD20 scFv (Leu16)-CD8α Hinge-CD8α TM-4-1BB-ITAM010, hereinafter referred to as “LUCAR-20SD” (SEQ ID NO: 4) was cloned into the expression plasmid pLVX-hEF1α to form the LUCAR-20SD expression plasmid named as M1586. The recombinant expression plasmid M1586 was extracted, mixed with psPAX2 and pMD2. G helper plasmids in a certain proportion, and co-transfected into HEK 293T cells. After 60 h of transfection, the cell culture supernatant containing the virus was collected and centrifuged at 4° C. and 3000 rpm for 5 min. After the supernatant was filtered through a 0.45 μm filter, the 500 KD hollow fiber membrane column tangential flow technique was used to further concentrate to prepare a lentivirus concentrate, which was stored at-80° C. for later use.
50 mL of fresh peripheral blood of volunteers was extracted, and mixed with lymphocyte separation medium. The peripheral blood mononuclear cells (PBMC) were separated by density gradient centrifugation. The cells were labeled with magnetic beads using Pan T Cell Isolation Kit (Miltenyi Biotech), and T lymphocytes were isolated and purified, and then activated by CD3/CD28 magnetic beads. After culturing for 24 hours in a 37° C., 5% CO2 incubator, 5×10^6 activated T lymphocytes were infected with the lentiviral vector of LUCAR-20SD. […]
Cultured with the addition of methotrexate (MTX) at the concentrations of 0 μM, 0.01 μM, 0.05 μM, 0.1 μM, 1 μM, or 2 μM, the cell number of LUCAR-20SD cells at day0 day3 day6 day9, day 12, and the cell number of CAR-γδT cells at day0 day2 day5 day7 were counted by AOPI. […]

The test system of experiment [1] is untransduced T cells (UnT). Nature of the experiment: In vitro mixed lymphoid (MLR) model with CAR-γδT cells, UnT and U937 cells: host UnT cells. In kind it is cell-based, human. As to conditions: 0.05 μM and 0.5 μM MTX; mixed culture with CAR-γδT and U937 cells. How it is done: To evaluate the ability of γδ T cells to tolerate allogeneic T cell rejection, an in vitro mixed lymphoid (MLR) model was established.
Using the T cells from a random healthy donor (B donor), CAR-γδT cells were prepared following the method in Example 1, as the graft cells. Un-transduced T cells (UnT) from another random healthy donor (T cell donor A) were also prepared, as the host cells.
The density of CLL1 positive human lymphoma cells (U937) was adjusted to 1×10^6 cells/mL. U937 cells were treated with 20 μg/mL mitomycin at 37° C. for 3 h, washed three times with 10 mL DPBS, and suspended in the culture medium. 20×10^6 untransduced T cells (UnT, T cell donor A), 1×10^6 CAR-γδT cells (T cell donor B), and 5×10^6 treated human lymphoma cells U937 were mixed and cultured in the medium. The cell mixture was divided into 3 groups, and 0 μM, 0.05 μM MTX, or 0.5 μM MTX was added, respectively. […] CAR-γδT cells were stimulated repeatedly with U937 cells at day0, day4, day7 at an E/T ratio of 1:1 According to the formula: fold change of cell number (UnT)=[cell number counted by AOPI×(CD3-/TCR VY9+%)]/20, fold change of cell number (CAR-γδT)=[cell number counted by AOPI×(CD3+/TCR Vγ9+%)]/1, the cell proliferation curves of UnT and CAR-γδT cells were plotted.

Take `CN(Cc1cnc2nc(N)nc(N)c2n1)c1ccc(C(=O)N[C@@H](CCC(=O)O)C(=O)O)cc1` [MTX, methotrexate]: the “proliferation of LUCAR-20SD cells compared with 0 μM MTX” value is “no significant difference in cell proliferation” in the experiment on LUCAR-20SD cells (0.01 μM to 1 μM MTX, day 12, p>0.05) and “decreased significantly” with LUCAR-20SD cells (2 μM MTX, day 12, p<0.05). The minimal effective concentration in the experiment with LUCAR-20SD cells (Homo sapiens, 288 h, day 12, read-out: MTX concentration that affects the proliferation of LUCAR-20SD cells) is no less than 2 µM. Besides, in experiment [1], the “proliferation of UnT cells” value was “significantly inhibited”.
